We go through 13 compounds from patent US20230382924A1, “MODULATORS OF CYSTIC FIBROSIS TRANSMEMBRANE CONDUCTANCE REGULATOR” (VERTEX PHARMACEUTICALS INCORPORATED, priority 2020, published 2023).

Where “and” joins values, the source holds several entries; their conditions need not be identical. Equal entries are not always repeated. Where two headings read alike, the source gives them in different places.

The target of one data set is T1, F508del (Homo sapiens, UniProt P13569, DEL508-508).
T1 construct: expressed in transfected cells
Briefly: 3T3 assay: membrane potential optical assay for F508del correction in NIH 3T3 cells. To be noted: for Emax: NIH3T3, read-out: 3T3 Max Activity. It counts as cell-based. From the text:
1. Membrane Potential Optical Methods for Assaying F508del Modulation Properties of Compounds
The assay utilizes fluorescent voltage sensing dyes to measure changes in membrane potential using a fluorescent plate reader (e.g., FLIPR III, Molecular Devices, Inc.) as a readout for increase in functional F508del in NIH 3T3 cells. The driving force for the response is the creation of a chloride ion gradient in conjunction with channel activation by a single liquid addition step after the cells have previously been treated with compounds and subsequently loaded with a voltage sensing dye.
2. Identification of Corrector Compounds
To identify correctors of F508del, a single-addition HTS assay format was developed. This HTS assay utilizes fluorescent voltage sensing dyes to measure changes in membrane potential on the FLIPR III as a measurement for increase in gating (conductance) of F508del in F508del NIH 3T3 cells. The F508del NIH 3T3 cell cultures were incubated with the corrector compounds at a range of concentrations for 18-24 hours at 37° C., and subsequently loaded with a redistribution dye. The driving force for the response is a Cl^− ion gradient in conjunction with channel activation with forskolin in a single liquid addition step using a fluorescent plate reader such as FLIPR III.
Bath Solution #1: (in mM) NaCl 160, KCl 4.5, CaCl2) 2, MgCl2 1, HEPES 10, pH 7.4 with NaOH.
Chloride-free bath solution: Chloride salts in Bath Solution #1 (above) are substituted with gluconate salts.
NIH3T3 mouse fibroblasts stably expressing F508del are used for optical measurements of membrane potential. The cells are maintained at 37° C. in 5% CO2 and 90% humidity in Dulbecco's modified Eagle's medium supplemented with 2 mM glutamine, 10% fetal bovine serum, 1×NEAA, b-ME, 1×pen/strep, and 25 mM HEPES in 175 cm^2 culture flasks. For all optical assays, the cells were seeded at ˜20,000/well in 384-well matrigel-coated plates. For the correction assays, the cells are cultured at 37° C. with and without compounds for 16-24 hours.

The target of data set [1] is T2, CFTR (Homo sapiens, UniProt P13569). Nature of the data set: Membrane Potential Dye, Enteroid Assay B. It counts as cell-based. To be noted: for EC50: read-out: Ent. B EC50. Put shortly: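 Enteroid cells loaded 25 min at room temperature with 20 μM methyl oxonol plus 30 μM CaCCinh-A01 and 30 μM Chicago Sky Blue, then switched to chloride-free gluconate buffer. Chloride transport was started by chloride-free stimulation solution, with fluorescence read for 15 min.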

For data set [2], the target named is T2, CFTR. Nature of the data set: Membrane Potential Dye, Enteroid Assay A. It counts as cell-based. Conditions: for EC50: read-out: Ent. A EC50. In short, it runs like this: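 Enteroid cells were loaded with methyl oxonol membrane potential dye (plus CaCCinh-A01 and Chicago Sky Blue) for 25 min at room temperature. Chloride transport was started by switching to chloride-free gluconate stimulation solution, with fluorescence read for 15 min. Activity was expressed as % of a triple-combination CFTR modulator control (3 μM, 3 μM, 300 nM acute).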

[3] abbreviates: NIH 3T3 cells, F508del correction.

T1 sequence (P13569 with tags, fused parts or gaps DEL508-508): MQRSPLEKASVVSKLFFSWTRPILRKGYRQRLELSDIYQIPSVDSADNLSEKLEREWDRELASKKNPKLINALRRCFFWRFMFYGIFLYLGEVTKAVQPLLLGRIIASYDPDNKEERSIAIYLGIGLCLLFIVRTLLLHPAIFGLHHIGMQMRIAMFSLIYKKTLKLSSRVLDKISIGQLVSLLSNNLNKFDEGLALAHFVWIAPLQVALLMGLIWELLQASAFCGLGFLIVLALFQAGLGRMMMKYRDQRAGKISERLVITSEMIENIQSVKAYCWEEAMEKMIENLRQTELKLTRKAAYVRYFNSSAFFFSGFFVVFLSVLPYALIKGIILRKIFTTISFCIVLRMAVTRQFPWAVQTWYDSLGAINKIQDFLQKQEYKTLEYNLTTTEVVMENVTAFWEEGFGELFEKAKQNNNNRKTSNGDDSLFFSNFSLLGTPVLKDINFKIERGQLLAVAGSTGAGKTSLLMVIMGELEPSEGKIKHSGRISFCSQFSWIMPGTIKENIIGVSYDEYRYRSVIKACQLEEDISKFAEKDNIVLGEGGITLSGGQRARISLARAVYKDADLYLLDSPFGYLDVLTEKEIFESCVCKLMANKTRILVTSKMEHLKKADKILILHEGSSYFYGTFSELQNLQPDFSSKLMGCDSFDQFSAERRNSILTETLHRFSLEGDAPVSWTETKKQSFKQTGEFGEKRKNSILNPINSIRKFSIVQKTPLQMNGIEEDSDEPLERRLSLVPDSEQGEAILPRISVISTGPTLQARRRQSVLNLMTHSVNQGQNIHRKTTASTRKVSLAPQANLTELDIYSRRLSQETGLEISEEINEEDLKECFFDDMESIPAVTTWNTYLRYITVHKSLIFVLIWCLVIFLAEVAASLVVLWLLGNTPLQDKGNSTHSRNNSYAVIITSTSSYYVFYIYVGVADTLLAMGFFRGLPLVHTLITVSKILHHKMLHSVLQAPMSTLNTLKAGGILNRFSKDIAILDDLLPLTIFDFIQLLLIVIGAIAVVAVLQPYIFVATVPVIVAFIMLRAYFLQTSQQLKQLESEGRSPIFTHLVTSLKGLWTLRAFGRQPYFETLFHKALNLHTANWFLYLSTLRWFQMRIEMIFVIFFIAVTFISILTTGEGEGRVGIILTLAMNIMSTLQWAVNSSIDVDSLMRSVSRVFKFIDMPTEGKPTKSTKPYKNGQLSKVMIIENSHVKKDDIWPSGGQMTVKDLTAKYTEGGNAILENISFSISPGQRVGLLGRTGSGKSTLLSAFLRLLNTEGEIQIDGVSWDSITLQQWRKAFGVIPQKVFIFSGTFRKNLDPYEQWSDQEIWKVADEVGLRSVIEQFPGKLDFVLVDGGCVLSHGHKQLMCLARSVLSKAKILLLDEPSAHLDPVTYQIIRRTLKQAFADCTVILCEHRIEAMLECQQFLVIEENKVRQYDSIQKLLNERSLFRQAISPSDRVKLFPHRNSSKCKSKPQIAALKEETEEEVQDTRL
T2 sequence (P13569 with tags, fused parts or gaps DEL508-508): as above

In turn, `Cc1cccc(C)c1-c1cc2nc(n1)NS(=O)(=O)c1cccc(c1)C(=O)NC[C@H](CO[Si](c1ccccc1)(c1ccccc1)C(C)(C)C)O2` showed a ring closure, yield after HPLC (from Cc1cccc(C)c1-c1cc(O[C@H](CN)CO[Si](c2ccccc2)(c2ccccc2)C(C)(C)C)nc(NS(=O)(=O)c2cccc(C(=O)O)c2)n1, amide bond, 13-membered ring, HATU/DIEA, DMF, 30.8 mM, 25.0 °C, 1.0 h, 2 steps) of 98%.

For `Cc1cccc(C)c1-c1cc2nc(n1)NS(=O)(=O)c1cccc(c1)C(=O)NC1CC(CN(CCC(C)(C)C)C1)O2` (stereo not drawn), the ring closure, yield after HPLC (from Cc1cccc(C)c1-c1cc(Cl)nc(NS(=O)(=O)c2cccc(C(=O)NC3CC(O)CN(CCC(C)(C)C)C3)c2)n1, snar bond, 14-membered ring, NaH, NMP, 5.8 mM, 70.0 °C, 2.0 h, 2 steps) is 2% and the ring closure, yield after HPLC (from Cc1cccc(C)c1-c1cc(Cl)nc(NS(=O)(=O)c2cccc(C(=O)NC3CC(O)CN(CCC(C)(C)C)C3)c2)n1, snar bond, 14-membered ring, NaH, NMP, 9.2 mM, 70.0 °C, 2.0 h, 2 steps) worked out at 3%.

In the case of `Cc1cccc(C)c1-c1nc2cc(n1)OC[C@@H](CC(C)C)NC(=O)c1cccc(c1)S(=O)(=O)N2`, the ring closure, yield after HPLC (from Cc1cccc(C)c1-c1nc(NS(=O)(=O)c2cccc(C(=O)O)c2)cc(OC[C@H](N)CC(C)C)n1, amide bond, 13-membered ring, HATU/TEA, DMF, 12.2 mM, 25.0 °C, 0.083 h) is 32%.

Take `Cc1cccc(C)c1-c1cc2nc(n1)NS(=O)(=O)C1CCC1C(=O)N[C@H](CC(C)C)CO2` (stereo partly drawn): the ring closure, yield after HPLC (from Cc1cccc(C)c1-c1cc(OC[C@H](N)CC(C)C)nc(NS(=O)(=O)C2CCC2C(=O)O)n1, amide bond, 12-membered ring, HATU/DIEA, DMF, 42.9 mM, 25.0 °C, 0.083 h, 2 steps) is 4% and 8%.

In general, EC50 refers to the concentration that produces a half-maximal response. As to `Cc1cccc(C)c1-c1cc2nc(n1)NS(=O)(=O)c1cccc(c1)C(=O)N[C@H](CC1CCCCC1)CO2` [Compound 365], the EC50 on F508del (setting [3]), on CFTR [1] (Enteroid Assay B) and at CFTR [2] (Enteroid Assay A) was less than 1000 nM each time. In addition, at CFTR [2] (Enteroid Assay A), the “Ent. A Max Activity” value is “+++ (+++ is >600%)”.

For the compound `Cc1cccc(C)c1-c1cc2nc(n1)NS(=O)(=O)c1cccc(c1)C(=O)N[C@H](CC(C)(C)C)CO2` [Compound 97, (11R)-6-(2,6-dimethylphenyl)-11-(2,2-dimethylpropyl)-2,2-dioxo-9-oxa-2λ^6-thia-3,5,12,19-tetrazatricyclo[12.3.1.14,8]nonadeca-1(18),4(19),5,7,14,16-hexaen-13-one], the EC50 on F508del (setting [3]), at CFTR [1] (Enteroid Assay B) and on CFTR [2] (Enteroid Assay A) was less than 1000 nM each time. Moreover, on CFTR [2] (Enteroid Assay A), the “Ent. A Max Activity” value is listed as “+++ (+++ is >600%)”.

Regarding `Cc1cccc(C)c1-c1cc2nc(n1)NS(=O)(=O)c1cccc(c1)C(=O)NC[C@@H](c1ccc(C(C)(C)C)cc1)O2` (single isomer, unassigned) [Compound 5], on F508del (Table 8), the Emax was more than 60% and the EC50 was less than 1000 nM. At CFTR [1] (Table 8), the “Ent. B Max Activity” value is “+++ (+++ is >60%)” and the EC50 is less than 1000 nM. On CFTR [2] (Table 8), the “Ent. A Max Activity” value was “+++ (+++ is >60%)” and the EC50 is less than 1000 nM.

As to `Cc1cccc(C)c1-c1cc2nc(n1)NS(=O)(=O)c1cccc(c1)C(=O)NCC(c1ccc([Si](C)(C)C)cc1)O2` (stereo not drawn), the ring closure, yield after HPLC (from Cc1cccc(C)c1-c1cc(OC(CN)c2ccc([Si](C)(C)C)cc2)nc(NS(=O)(=O)c2cccc(C(=O)O)c2)n1, amide bond, 13-membered ring, HATU/DIEA, DMF, 55.1 mM, 25.0 °C, 0.5 h) is 23%.

`Cc1cccc(C)c1-c1cc2nc(n1)NS(=O)(=O)c1cccc(c1)C(=O)NCC(c1ccc(C3CCC3)cc1)O2` (stereo not drawn) registered a ring closure, yield after HPLC (from Cc1cccc(C)c1-c1cc(OC(CN)c2ccc(C3CCC3)cc2)nc(NS(=O)(=O)c2cccc(C(=O)O)c2)n1, amide bond, 13-membered ring, HATU/DIEA, DMF, 189.0 mM, 25.0 °C, 0.5 h) of 1%.

In turn, `Cc1cccc(C)c1-c1cc2nc(n1)NS(=O)(=O)c1cccc(c1)C(=O)NC[C@H](C)O2` [Compound 27, (10S)-6-(2,6-Dimethylphenyl)-10-methyl-2,2-dioxo-9-oxa-2λ^6-thia-3,5,12,19-tetrazatricyclo[12.3.1.14,8]nonadeca-1(18),4(19),5,7,14,16-hexaen-13-one] yielded a ring closure, yield after HPLC (from Cc1cccc(C)c1-c1cc(O[C@@H](C)CN)nc(NS(=O)(=O)c2cccc(C(=O)O)c2)n1, amide bond, 13-membered ring, HATU/DIEA, DMF, 25.0 °C, 1.0 h, 2 steps) of 55%.

As for `Cc1cccc(C)c1-c1cc2nc(n1)NS(=O)(=O)c1ccnc(c1)C(=O)N[C@H](CC1CCCCC1)CO2` [Compound 142], at F508del (Table 8), the Emax is more than 60% and the EC50 is less than 1000 nM. Further, at CFTR [1] (Table 8), the “Ent. B Max Activity” value was “++ (++ is 306%)” and the EC50 is less than 1000 nM. In addition, on CFTR [2] (Table 8), the “Ent. A Max Activity” value is reported as “+++ (+++ is >60%)” and the EC50 is 1000 to 3000 nM.

For `Cc1cccc(C)c1-c1cc2nc(n1)NS(=O)(=O)c1cccc(c1)C(=O)N[C@H](CC(C)C)C(c1ccc(C(C)(C)C)cc1)O2` (stereo partly drawn), the ring closure, yield after HPLC (from Cc1cccc(C)c1-c1cc(OC(c2ccc(C(C)(C)C)cc2)[C@H](N)CC(C)C)nc(NS(=O)(=O)c2cccc(C(=O)O)c2)n1, amide bond, 13-membered ring, HATU/NaOtBu, DMF/THF, 69.4 mM, 25.0 °C, 2.0 h, 2 steps) was 21% and 15%.

As for `Cc1cccc(C)c1-c1cc2nc(n1)NS(=O)(=O)c1cccc(c1)C(=O)NC[C@H](c1ccccc1)O2` [Compound 26, (10S)-6-(2,6-Dimethylphenyl)-2,2-dioxo-10-phenyl-9-oxa-2λ^6-thia-3,5,12,19-tetrazatricyclo[12.3.1.14,8]nonadeca-1(18),4(19),5,7,14,16-hexaen-13-one], the ring closure, yield after HPLC (from Cc1cccc(C)c1-c1cc(O[C@H](CN)c2ccccc2)nc(NS(=O)(=O)c2cccc(C(=O)O)c2)n1, amide bond, 13-membered ring, HATU/DIEA, DMF, 25.9 mM, 25.0 °C, 1.0 h, 2 steps) was 38%.
